Values joined by “and” are separate entries in the source; they are usually repeats but may differ in a detail not shown here. Identical values can stand only once.
How the values were obtained:
[1] = Crystal; DTA
[2] = Molar enthalpy of transition or fusion; details: Crystal; DSC
[3] = molar heat capacity at constant pressure; details: 101.33 kPa, Liquid

[Br-].[Br-].[Br-].[Tb+3] [terbium tribromide]
Details | Molar enthalpy of transition or fusion [kcal/mol] | Normal melting temperature [°C]
[1] | – | 830
[2] | 8.94 | –

[3]
Details | molar heat capacity at constant pressure
305 K | 95.25 J/K/mol
310 K | 96.04 J/K/mol
315 K | 96.89 J/K/mol
320 K | 96.99 J/K/mol
325 K | 97.03 J/K/mol
330 K | 96.84 J/K/mol
335 K | 97.05 J/K/mol
340 K | 97.06 J/K/mol
345 K | 98.47 J/K/mol
350 K | 98.03 J/K/mol
354 K | 96.27 J/K/mol
359 K | 96.56 J/K/mol
364 K | 95.16 J/K/mol
369 K | 95.49 J/K/mol
374 K | 95.66 J/K/mol
379 K | 94.73 J/K/mol
384 K | 96.58 J/K/mol
389 K | 94.78 J/K/mol
394 K | 96.69 J/K/mol
399 K | 97.48 J/K/mol
404 K | 97.16 J/K/mol
409 K | 97.43 J/K/mol
414 K | 96.37 J/K/mol
419 K | 97.26 J/K/mol
424 K | 96.24 J/K/mol
429 K | 97.6 J/K/mol
434 K | 98.83 J/K/mol
439 K | 98.92 J/K/mol
444 K | 98.73 J/K/mol
449 K | 100.77 J/K/mol
454 K | 101.24 J/K/mol
459 K | 102.68 J/K/mol
464 K | 101.53 J/K/mol
469 K | 101.69 J/K/mol
474 K | 101.67 J/K/mol
479 K | 101.42 J/K/mol
484 K | 102.61 J/K/mol
489 K | 102.5 J/K/mol
494 K | 101.69 J/K/mol
499 K | 102.17 J/K/mol
504 K | 102.99 J/K/mol
509 K | 102.18 J/K/mol
514 K | 100.27 J/K/mol
519 K | 96.88 J/K/mol
524 K | 98.84 J/K/mol
529 K | 97.84 J/K/mol
534 K | 99.15 J/K/mol
539 K | 97.79 J/K/mol
543 K | 97.7 J/K/mol
548 K | 97.62 J/K/mol
553 K | 98.93 J/K/mol
558 K | 98.58 J/K/mol
568 K | 98.34 J/K/mol
573 K | 98.95 J/K/mol
578 K | 98.65 J/K/mol
583 K | 99.14 J/K/mol
588 K | 98.88 J/K/mol
593 K | 100.12 J/K/mol
598 K | 98.39 J/K/mol
603 K | 99.23 J/K/mol
608 K | 100.21 J/K/mol
613 K | 99.21 J/K/mol
618 K | 100.47 J/K/mol
623 K | 100.62 J/K/mol
628 K | 99.41 J/K/mol
633 K | 99.03 J/K/mol
638 K | 100.94 J/K/mol
643 K | 100.9 J/K/mol
648 K | 106.81 J/K/mol
653 K | 99.85 J/K/mol and 102.18 J/K/mol
658 K | 101.21 J/K/mol
663 K | 102.1 J/K/mol
668 K | 99.19 J/K/mol
673 K | 98.9 J/K/mol
678 K | 101.61 J/K/mol
683 K | 98.15 J/K/mol
688 K | 99.94 J/K/mol
693 K | 98.07 J/K/mol
698 K | 97.98 J/K/mol
703 K | 96.7 J/K/mol
708 K | 97.79 J/K/mol
713 K | 99.85 J/K/mol
717 K | 99.17 J/K/mol
722 K | 99.02 J/K/mol
727 K | 99.08 J/K/mol
732 K | 99.98 J/K/mol
737 K | 99.41 J/K/mol
742 K | 101.93 J/K/mol
747 K | 100.1 J/K/mol
752 K | 104.88 J/K/mol
757 K | 100.82 J/K/mol
762 K | 101 J/K/mol
767 K | 101.85 J/K/mol
772 K | 102.41 J/K/mol
777 K | 103.2 J/K/mol
782 K | 102.71 J/K/mol
787 K | 101.9 J/K/mol
792 K | 101.02 J/K/mol
797 K | 101.52 J/K/mol
802 K | 101.51 J/K/mol
807 K | 99.68 J/K/mol
812 K | 103.05 J/K/mol
817 K | 103.73 J/K/mol
822 K | 102.94 J/K/mol
827 K | 103.83 J/K/mol
832 K | 99.83 J/K/mol
837 K | 98.83 J/K/mol
842 K | 101.98 J/K/mol
847 K | 103.78 J/K/mol
852 K | 103.32 J/K/mol
857 K | 99.15 J/K/mol
862 K | 102.98 J/K/mol
867 K | 101.94 J/K/mol
872 K | 105.24 J/K/mol
877 K | 101.33 J/K/mol
882 K | 103.27 J/K/mol
887 K | 97.19 J/K/mol
892 K | 97.82 J/K/mol
897 K | 98.26 J/K/mol
902 K | 101.94 J/K/mol
907 K | 97.88 J/K/mol
911 K | 97.43 J/K/mol
916 K | 100.85 J/K/mol
921 K | 97.21 J/K/mol
926 K | 100.73 J/K/mol
931 K | 95.04 J/K/mol
936 K | 99.59 J/K/mol
941 K | 98.67 J/K/mol
946 K | 99.44 J/K/mol
951 K | 102.23 J/K/mol
956 K | 103.73 J/K/mol
961 K | 99.7 J/K/mol
966 K | 98.27 J/K/mol
971 K | 101.79 J/K/mol
976 K | 102.55 J/K/mol
981 K | 97.92 J/K/mol
986 K | 104.37 J/K/mol
991 K | 100.42 J/K/mol
996 K | 107.17 J/K/mol
1001 K | 105.67 J/K/mol
1006 K | 110.34 J/K/mol
1011 K | 102.11 J/K/mol
1016 K | 100.99 J/K/mol
1021 K | 106.91 J/K/mol
1026 K | 105.87 J/K/mol
1031 K | 112.44 J/K/mol
1036 K | 99.98 J/K/mol
1041 K | 101.71 J/K/mol
1046 K | 101.91 J/K/mol
1051 K | 106.32 J/K/mol
1056 K | 110.86 J/K/mol
1061 K | 111.7 J/K/mol

From the NIST ThermoML archive (doi:10.1021/je049910c)
